# “And” between values parts separate entries of the source, which are not always exact repeats. Equal values may be shown once.
# Assays:
# [1] = Storage stability of crystalline forms (decomposition to Trandolaprilat diketopiperazine, by HPLC); type: physicochemical; details: for Amount of Trandolaprilat Diketopiperazine after Isolation and Drying of the Wet Product: before storage; for Tendency to decompose to Trandolaprilat Diketopiperazine on storage (in words): comparison of crystalline forms, Table 9
# Method: Purity was determined by HPLC using a Luna C18 (150×4.6 mm, 3 μm; Manufacturer: Phenomenex, Torrence, Calif., USA) column, as well as a Symmetry C18(2) (150×4.6 mm, 3.5 μm; Manufacturer: Waters Corporation, Millford, Mass., USA) column using as mobile phase: Mobile phase A: 0.03% v/v of trifluoroacetic acid in water; Mobile phase B: 0.025% v/v of trifluoroacetic acid in acetonitrile; column temperature 30° C., flow rate: 1.5 ml/min, detection: UV 206 nm; eluent gradient: […]
# [2] = Degradation to Trandolaprilat diketopiperazine in non-hydroxylic solvent (THF solution); type: physicochemical
# Description: Furthermore, crystallization and precipitation from non-hydroxylic solvents often provided a resin that could only be difficultly handled.
# [3] = Solubility in n-butanol with and without water; type: physicochemical
# Description: In step (f), an amount of water is removed from the solution of step (e) that is sufficient for inducing crystallization of the Trandolaprilat and provide crystalline Trandolaprilat in a polymorphic or pseudopolymorphic form. Because Trandolaprilat is not soluble in anhydrous n-butanol, its crystallization from the organic layer can be initiated by removing the water, for example, by concentrating an n-butanol/water solution containing the Trandolaprilat using azeotropic distillation (to provide crystalline Trandolaprilat).
# [4] = molecular target: Angiotensin Converting Enzyme (ACE enzyme) (Homo sapiens, UniProt P12821); details: compared with Trandolapril; cited from earlier work
# [5] = storage temperature 20-25, storage time 4 months
# Sequence of Angiotensin Converting Enzyme (ACE enzyme) (P12821 30-1306, species assumed): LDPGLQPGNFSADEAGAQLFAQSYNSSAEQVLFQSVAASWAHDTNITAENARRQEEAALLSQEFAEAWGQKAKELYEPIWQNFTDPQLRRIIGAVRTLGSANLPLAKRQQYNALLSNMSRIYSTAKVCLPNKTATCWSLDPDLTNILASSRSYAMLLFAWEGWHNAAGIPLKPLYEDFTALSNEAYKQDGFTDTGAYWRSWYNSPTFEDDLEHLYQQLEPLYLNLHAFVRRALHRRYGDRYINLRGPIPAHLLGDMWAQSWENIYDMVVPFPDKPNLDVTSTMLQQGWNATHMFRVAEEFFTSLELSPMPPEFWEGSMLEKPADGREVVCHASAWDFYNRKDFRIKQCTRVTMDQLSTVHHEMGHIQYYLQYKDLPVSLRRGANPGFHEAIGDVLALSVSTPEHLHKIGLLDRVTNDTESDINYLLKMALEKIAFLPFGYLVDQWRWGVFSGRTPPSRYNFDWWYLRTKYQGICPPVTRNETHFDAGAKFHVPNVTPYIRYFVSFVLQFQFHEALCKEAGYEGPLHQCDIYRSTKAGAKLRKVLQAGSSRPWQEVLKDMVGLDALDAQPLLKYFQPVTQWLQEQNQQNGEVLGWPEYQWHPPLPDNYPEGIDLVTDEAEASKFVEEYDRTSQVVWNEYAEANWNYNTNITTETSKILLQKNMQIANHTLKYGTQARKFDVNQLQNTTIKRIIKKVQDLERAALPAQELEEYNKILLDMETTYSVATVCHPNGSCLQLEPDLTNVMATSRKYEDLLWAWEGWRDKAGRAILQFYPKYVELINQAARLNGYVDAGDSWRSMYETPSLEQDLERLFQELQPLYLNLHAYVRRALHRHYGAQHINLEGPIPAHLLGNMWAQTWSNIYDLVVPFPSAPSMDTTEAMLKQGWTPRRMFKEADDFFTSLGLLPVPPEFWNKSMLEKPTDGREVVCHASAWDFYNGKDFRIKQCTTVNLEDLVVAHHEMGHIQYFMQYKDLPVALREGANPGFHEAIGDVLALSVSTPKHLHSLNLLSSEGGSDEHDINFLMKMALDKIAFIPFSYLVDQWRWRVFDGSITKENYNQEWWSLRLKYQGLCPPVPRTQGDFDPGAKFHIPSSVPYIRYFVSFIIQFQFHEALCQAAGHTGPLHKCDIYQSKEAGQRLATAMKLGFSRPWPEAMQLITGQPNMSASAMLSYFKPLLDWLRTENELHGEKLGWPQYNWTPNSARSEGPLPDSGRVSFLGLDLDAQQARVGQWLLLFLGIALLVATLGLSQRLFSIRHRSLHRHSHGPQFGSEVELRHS
SMILES,Amount of Trandolaprilat Diketopiperazine after Isolation and Drying of the Wet Product [1],Tendency to decompose to Trandolaprilat Diketopiperazine on storage (in words) [1],"Amount of Trandolaprilat Diketopiperazine after Storage [1, 5] [% by HPLC]","Amount of Trandolaprilat Diketopiperazine after Storage ([1]; storage temperature 4-8, storage time 3 months) [% by HPLC]","Amount of Trandolaprilat Diketopiperazine after Storage ([1]; storage temperature 20-25, storage time 3 months) [% by HPLC]",Formation of degradation product Trandolaprilat diketopiperazine ([2]; THF solution heated at reflux temperature),"Rate of degradation to Trandolaprilat diketopiperazine ([2]; dissolved in THF, room temperature)",Solubility ([3]; anhydrous n-butanol),"Solubility ([3]; free amino acid form, n-butanol saturated with water)",Potency as an inhibitor of ACE activity relative to Trandolapril [4]
"C[C@H](N[C@@H](CCc1ccccc1)C(=O)O)C(=O)N1[C@H](C(=O)O)C[C@H]2CCCC[C@@H]21 [Form B, Trandolaprilat]",Not Detected,significantly lower,0.20,–,–,–,–,–,–,–
"C[C@H](N[C@@H](CCc1ccccc1)C(=O)O)C(=O)N1[C@H](C(=O)O)C[C@H]2CCCC[C@@H]21 [Form C, Trandolaprilat]",Not Detected,significantly lower,0.26,–,–,–,–,–,–,–
"C[C@H](N[C@@H](CCc1ccccc1)C(=O)O)C(=O)N1[C@H](C(=O)O)C[C@H]2CCCC[C@@H]21 [Form E, Trandolaprilat]","0.34 %, by HPLC and 0.19 %, by HPLC",greater tendency to decompose,–,0.75,0.92,–,–,–,–,–
C[C@H](N[C@@H](CCc1ccccc1)C(=O)O)C(=O)N1[C@H](C(=O)O)C[C@H]2CCCC[C@@H]21 [Trandolaprilat],–,–,–,–,–,almost complete within a few hours,at least 0.2 % per hour,not soluble,soluble,about eight times more potent than Trandolapril
"C[C@H](N[C@@H](CCc1ccccc1)C(=O)O)C(=O)N1[C@H](C(=O)O)C[C@H]2CCCC[C@@H]21 [Form A, Trandolaprilat]",Not Detected,only a very low quantity of the degradation product,0.02,–,–,–,–,–,–,–
"C[C@H](N[C@@H](CCc1ccccc1)C(=O)O)C(=O)N1[C@H](C(=O)O)C[C@H]2CCCC[C@@H]21 [Form D, Trandolaprilat]",Not Detected,only a very low quantity of the degradation product,0.03,–,–,–,–,–,–,–
